Experimental findings from patent US20050080102A1, “Compound and uses thereof” (priority 2002, published 2005) are described below.

Common to all, as to format: biochemical
One assay relates to Apaf-1 (apoptosome). The assay can be described thus: Apoptosome formation in HeLa cell S-100, gel-filtration chromatography and Western blot against Apaf-1. The procedure: In order to find out how this small molecule ([…]) promotes activation of caspase-3, apoptosome formation was analyzed using gel-filtration chromatography followed by Western blot analysis against Apaf-1 (Zou H et al., Cell 90:405-413, 1997). Other methods known to those of ordinary skill in the art may also be used for such an analysis.
Background: A western blot detects proteins with antibodies after separation by electrophoresis.

Assay [1] deals with extracts from human tumor cells (caspase activation). The assay can be described thus: Response of extracts from a battery of human tumor cells to PETCM. As to conditions: colon cancer, prostate cancer, promyelocytic leukemia, T cell leukemia, bone marrow leukemia, malignant melanoma, lymphoma, glioblastoma cells. The procedure:
Extracts from a battery of human tumor cells were also screened for their response to PETCM. It was determined that many human cancer lines, including colon cancer, prostate cancer, promyelocytic leukemia, T cell leukemia, bone marrow leukemia, malignant melanoma, lymphoma, and glioblastoma cells were responsive. […] PETCM and the PETCM-stimulated caspase activation pathway are therefore of fundamental and clinical significance with respect to malignant mammalian cells. Thus, the present invention encompasses a method of stimulating caspase activity in malignant cells comprising exposing said cells to PETCM or administering PETCM to said cells.

Assay [2] relates to caspase-3. The assay can be described thus: Caspase-3 activation in HeLa cell lysate/S-100 (Ac-DEVD-pNA cleavage, HTS). The procedure:
Other means of measuring caspoase-3 activation are also encompassed herein and are readily known to those of ordinary skill in the art.
With respect to Example I, the high throughput screening (HTS) was essentially a cell-lysate assay in which the endpoint, activation of caspase-3, was monitored by the cleavage of a calorimetric substrate. HeLa cell lysate was prepared by Cellex Bioscience (Minneapolis, Minn.). This lysate was thawed and centrifuged before use (15K rpm in a JA20 Beckman rotor, Fullerton, Calif.). […] The plates were allowed to incubate for three to four hours. When 90% of the Ac-DEVD-pNA (Bachem L1945) was converted by the activated capsase-3 in the control plate, the screening plates were read again at 390 nm. The change in absorbency was scaled to the fully-activated control (cytochrome c) and the negative control (no compound).

The test system of assay [3] is caspase-3 (procaspase-3 cleavage). In words: Caspase-3 activation reconstituted with HeLa S-100 fractions (Q-ft, Q30, Q100) and purified/recombinant proteins. The text has this: To study the mechanism, HeLa cell S-100 extracts were fractionated using an anion exchange column. […] The first fraction, Q-ft, flew through the column and contained cytochrome c (Liu et al., Cell 86:147 (1996)). The second fraction, Q30, was eluted with 0.3 M NaCl and contained Apaf-1 (Zou et al., Cell 90:405 (1997)) and procaspase-9 (Li et al., Cell 91:479 (1997)). The third fraction, Q100, was eluted with 1 M NaCl. These three fractions were then used in different combinations to search for proteins that might mediate the PETCM effect.
The inhibitory activity was assayed by adding column fractions to the mixture of Q30/cytochrome c/PHAP/dATP.
Ten ml of HeLa S-100 (˜60 mg total protein) was loaded on a 1-ml HiTrap Q column (Pharmacia) pre-equilibrated with Buffer A (i.e., 20 mM Hepes-KOH, pH7.5, 10 mM KCl, 1.5 mM Mg Cl2, 1 mM sodium EDTA and 1 mM sodium EGTA, 1 mM dithiothreitol, and 0.1 mM PMSF). The flowthrough (Q-ft) was collected. After being washed with 10-ml of Buffer A, the column was eluted with 10-ml of Buffer A containing 300 mM NaCl, and the eluted protein peak ([…]) was collected (Q30). Subsequently, the column was eluted with Buffer A containing 1 M NaCl, and the protein peak (−3 ml) was collected and dialyzed for overnight (Q100).

Assay [4] has as its system caspase-3. The assay can be described thus: Caspase-3 activation in extracts from RNAi treated HeLa cells. Particulars: extracts from control RNAi treated-cells (FIG. 6D). The source says:
(SEQ ID NO:7) and […] (SEQ ID NO:9) and […]

Assay [5] relates to apoptosome (Apaf-1/caspase-9). The assay can be described thus: Apoptosome formation and caspase-9 activation in reconstituted system (Q30, cytochrome c, dATP). The procedure: FIG. 5 illustrates regulation of apoptosome by ProT and PHAP. FIG. 5(A) illustrates that PHAP accelerates caspase-3 activation after PETCM antagonizes the inhibitory activity of ProT. FIG. 5(B) illustrates that ProT inhibits apoptosome formation, and PETCM can antagonize the inhibitory activity. FIG. 5(C) illustrates that PHAP enhances caspase-9 activation. Apoptosome formation was measured as described in FIG. 1.
Subsequently, regulation of apoptosome by these players was tested. […] PETCM promotes caspase-3 activation by removing the inhibition of ProT on apoptosome formation, allowing PHAPs to stimulate apoptosome activity.

Turning to `OC(Cc1ccncc1)C(Cl)(Cl)Cl` (stereo not drawn) [PETCM, alpha-(trichloromethyl)-4-Pyridineethanol], the “efficiency of apoptosome formation compared with dATP” value in the assay with Apaf-1 (apoptosome) (0.2 mM PETCM vs 1 mM dATP) was “better than 1 mM dATP”. For the same molecule, in the assay on Apaf-1 (apoptosome) (S-100 incubated with 0.2 mM PETCM), the “apoptosome formation (Apaf-1 shift)” value is recorded as “Apaf-1 was also shifted to the position of apoptosome”. Further, in assay [1], the “response of human cancer line extracts to PETCM” value is given as “responsive”. Moreover, the “efficiency in activating caspase-3 compared with dATP” value in the assay with caspase-3 [2] (0.2 mM PETCM vs 1.0 mM dATP) is given as “more efficient in activating caspase-3 than 1.0 mM dATP”. In the assay with caspase-3 [2] (FIG. 1(B), increasing amounts of PETCM), the “DEVD activity of HeLa S-100” value is reported as “stimulates DEVD activity of HeLa S-100 in a dose-dependent manner”. For the same molecule, the “reversal of Q100 suppression of PHAP stimulatory activity” value in assay [3] (PHAP with Q100 added back (FIG. 4A, lanes 5-6)) was “the suppression was reversed by the addition of PETCM”. Further, the caspase-3 activation result in assay [3] (Q30, cytochrome c, 10 μM dATP, PHAPI, ProT, with PETCM (FIG. 5A, lane 4)) is recorded as “the inhibitory effect of ProT was reversed”; in assay [3] (Q-ft + Q30 + Q100, 0.2 mM PETCM with 10 μM dATP (lane 5)) it was “caspase-3 activation was observed at 10 μM dATP”; in assay [3] (Q-ft + Q30 + Q100, PETCM, dATP completely omitted (lane 4)) it was “No caspase-3 activation was seen”. Also, in the assay with caspase-3 [4], the “caspase-3 activation in extracts, PETCM requirement” value is listed as “responsive to PETCM”. Further, the apoptosome formation result in assay [5] (FIG. 5B, ProT plus PETCM) was “relieved the blockage”.

Consider `Nc1ncnc2c1ncn2[C@H]1C[C@H](O)[C@@H](COP(=O)(O)OP(=O)(O)OP(=O)(O)O)O1` [dATP, 2′-deoxyadenosine-5′-triphosphate, reference compound], for which, in the assay with Apaf-1 (apoptosome) (S-100 incubated with 1 mM dATP), the “apoptosome formation (Apaf-1 shift)” value is “most of the Apaf-1 was shifted to the size of ˜1 million Dalton”. The caspase-3 activation entry in assay [3] (Q-ft + Q30 + Q100, 10 μM dATP (lane 3)) was “little caspase-3 activation was observed”; in assay [3] (Q-ft + Q30 + Q100, 1 mM dATP (lane 2)), “robust caspase-3 activation”.

For the molecule “PHAPI: recombinant His-tagged PHAPI, putative tumor suppressor protein that stimulates caspase activation”, the caspase-3 activation result in assay [3] (Q30 fraction plus cytochrome c and 10 μM dATP (FIG. 5A, lane 2)) is reported as “stimulated caspase-3 activation”. Moreover, the apoptosome formation result in assay [5] (presence of PHAPI) is “did not affect the efficiency of apoptosome formation”. In addition, the caspase-9 activation result in assay [5] (presence of PHAPI (FIG. 5C)) is listed as “more activated caspase-9 was observed”.
